Experiment: gradient 5% acetonitrile 3 min, to 50% in 2 min, to 85% in 15 min, held 3 min, 100 µL/min
Details: column: Zorbax Extend-C18 2.1 x 50 mm; eluents: water / acetonitrile, 0.1% formic acid
How it was run: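 Pure standards were analyzed in mixtures of ~100 molecules using HPLC coupled to a quadrupole time-of-flight mass spectrometer, in both positive and negative ionization mode. Separation used a Zorbax Extend-C18 column (2.1 × 50 mm, 1.8 μm) at 100 μL/min, with water and acetonitrile each containing 0.1% formic acid. Dead and dwell volumes were 40 μL and 900 μL, and data were collected over 3 months. Retention time was read from computationally picked adduct peaks, each inspected manually.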

Row | RP-LC retention time [s] | Structure (SMILES)
1 | 655 | CCn1c(N2CCN(C(=O)Nc3ccccc3OC)CC2)nc2ccccc21
2 | 722 | CC(C)C(=O)NCc1csc(C2CCN(C(=O)COc3ccccc3)CC2)n1
3 | 886 | Cc1oc(C2CCN(S(=O)(=O)c3ccccc3F)CC2)nc1C(=O)N1CCCC1
4 | 814 | O=C(Nc1cccc(Cl)c1)c1cnn2c1CCCC2
5 | 848 | O=C(NC1CC1)c1ccc(OCC2CCCN(C(=O)c3ccc(F)cc3F)C2)cc1 (configuration not stated)
6 | 826 | O=c1ccc(S(=O)(=O)N2CCCC2)cn1Cc1cccc(F)c1
7 | 866 | Cc1cccc(S(=O)(=O)N2CCCN(c3ccc(=O)n(-c4ccccc4)n3)CC2)c1
8 | 940 | Cn1nccc1C(=O)N1CCCC1c1nc(-c2cccc(C(F)(F)F)c2)no1 (configuration not stated)
9 | 1000 | CCc1cc(C(=O)NCc2ccccc2Cl)nc2ccnn12
10 | 883 | COc1ccccc1CNC(=O)C1CCCN(c2ccc(=O)n(-c3cccc(Cl)c3)n2)C1 (configuration not stated)
11 | 679 | CCN(CC)C(=O)c1ccc(-c2nc3cc(NS(=O)(=O)c4ccccc4F)ccc3n2C)cc1
12 | 640 | NC(=O)C1CCN(C(=O)COCc2cc(-c3cccs3)on2)CC1
13 | 1050 | O=C(NCCC1=CCCCC1)c1nnc(-c2ccc(S(=O)(=O)N3CCCC3)cc2)o1
14 | 1070 | Cc1ccc(OCC(=O)Nc2cnn(C)c(=O)c2N2CCCCC2)cc1
15 | 657 | Cc1cc(C)cc(C(=O)N2CCN(c3nnc4ccccn34)CC2)c1
16 | 1110 | O=S(=O)(c1ccc(-c2noc(-c3ccccc3Br)n2)cc1)N1CCOCC1

Row | RP-LC retention time [s] | Structure (SMILES)
17 | 682 | CCCNc1cc(N2CCC(CCC(=O)Nc3ccc4c(c3)OCCO4)CC2)ncn1
18 | 606 | CC(C)OCCCNC(=O)c1ccc2c(c1)nc1n2CCCCC1
19 | 738 | Cc1ccccc1NC(=O)Cn1c(C)nc2onc(C)c2c1=O
20 | 777 | N#Cc1cccc(NC(=O)C2CCCN(S(=O)(=O)c3c[nH]c(C(=O)N4CCCC4)c3)C2)c1 (configuration not stated)
21 | 830 | Cn1ncc2c(N3CCSCC3)nc(C(=O)N3CCN(c4ccccc4)CC3)nc21
22 | 932 | Cc1ccc(S(=O)(=O)N2CCC(C)(C(=O)NCc3ccccc3)CC2)cc1
23 | 1030 | CC1CCN(C(=O)C2=NN(Cc3ccccc3F)c3ccccc3S2(=O)=O)CC1
24 | 643 | CCOCCCNC(=O)N1CCC(c2noc(-c3ccncc3)n2)C1 (configuration not stated)
25 | 697 | COc1ccc(NC(=O)CN2CCN(Cc3ccc(F)cc3)C(=O)C2=O)cc1
26 | 639 | O=c1c(Cl)c(N2CCN(c3ccccn3)CC2)cnn1-c1nc2ccccc2s1
27 | 1140 | CN1C(=O)COc2ccc(-c3csc(NC(=O)CCC4CCCCC4)n3)cc21
28 | 802 | CCS(=O)(=O)N1CC(=O)N(c2ccccc2C)C(C)(C(=O)NCc2ccccc2)C1 (configuration not stated)
29 | 944 | c1cc2c(cc1-c1nnc(C3CCCC3)o1)OCO2
30 | 1270 | CCn1cc(C2=CCN(S(=O)(=O)c3ccc(C(C)(C)C)cc3)CC2)c2cccnc21
31 | 822 | COc1ccc(Cl)cc1N(C)C(=O)C(=O)Nc1ccc2nc3n(c(=O)c2c1)CCCCC3
32 | 633 | O=C(Cn1nc2n(c1=O)CCCC2)Nc1ccccc1

More lines, now with the values behind:

Row | Structure (SMILES) | RP-LC retention time [s]
33 | CCc1ccc(NS(=O)(=O)c2cc(-c3c(CC)noc3NC(C)=O)ccc2OC)cc1 | 802
34 | O=C(Nc1cnc(N2CCOCC2)nc1)c1cccc(Cl)c1 | 793
35 | CCCCOc1ccc(NC(=O)c2oc3ccc(F)cc3c2C)c2cccnc12 | 850
36 | CCCn1cc(CCNC(=O)c2cc(C)ccc2C)c2cccnc21 | 827
37 | O=C(CN1CCN(Cc2ccc(F)cc2)C1=O)NCc1ccccc1C(F)(F)F | 866
38 | COc1ccc(-c2ncc3c(n2)CCN(S(=O)(=O)c2ccc(Cl)s2)C3)cc1 | 1140
39 | CCCOc1ccnc2c1c(=O)n(CC(=O)Nc1cc(C)on1)c(=O)n2C | 675
40 | COc1ccc(Cc2nn3c(CSc4ccccc4)nnc3s2)cc1OC | 865
41 | Cc1cc(Cl)ccc1OCc1nc(-c2cccc(-c3ccnn3C)c2)no1 | 1200
42 | COCc1ncc(C)n1CC1CN(C(=O)c2cccn2C)C1 | 585
43 | COc1ccc(-c2nc(C)cc(C)c2CNC(=O)c2ccc(Br)o2)cc1 | 634
44 | CCCCOc1ccc(C(=O)NC2(c3nc(-c4cccnc4)no3)CCCCC2)cc1 | 1170
45 | O=C(Cn1nc(-c2ccccc2)c2cc(Cl)ccc21)NCc1cccnc1 | 712
46 | COc1ccccc1-c1nc(-c2cn(Cc3ccc(F)cc3)nn2)no1 | 927
47 | O=C(Nc1cc(F)ccc1F)Nc1c(-c2ccccc2)nc2ccccn12 | 677
48 | Cc1c(C(=O)Nc2ccccc2)cnc2nc(-c3ccncc3)nn12 | 594
49 | O=C(Cc1csc(-c2ccccc2)n1)Nc1nc(-c2ccc(Cl)cc2)cs1 | 1210
50 | COC(=O)c1cnc2nc(C)ccc2c1Nc1ccc(Cl)c(F)c1 | 713

Row | Structure (SMILES) | RP-LC retention time [s]
51 | CCOC(=O)c1sc(NC(=O)c2cc3ccccc3o2)nc1C | 974
52 | Cc1nn(-c2cc(N(C)C)ncn2)c(C)c1CCC(=O)NCc1ccco1 | 684
53 | COc1ccc(CCc2nc3nccc(-c4ccsc4)n3n2)cc1 | 946
54 | CSc1ccc(-c2nc3c(C)cccn3c2Nc2ccccc2C)cc1 | 810
55 | CCC(=O)Nc1nc(-c2ccc3c(c2)N(CC)C(=O)CO3)c(C)s1 | 812
56 | COc1ccccc1N1CCN(c2cc(SCC(=O)NCc3ccc(Cl)cc3)ncn2)CC1 | 1110
57 | Cc1nn(-c2ccc(C(=O)NC(C)C)cc2)c2c1C(=O)CC(C)(C)C2 | 775
58 | CSc1cccc(NC(=O)Cn2cccc(-c3nc(-c4ccc(F)cc4)no3)c2=O)c1 | 939
59 | CC(C)(C)c1ccc(C(=O)Nc2ccc(S(N)(=O)=O)cc2)cc1 | 932
60 | CNc1nc(NC(C)C)nc(-n2cnc(SC)n2)n1 | 722
61 | Cc1ccc(Cn2c(C(=O)NCCc3ccccc3)cc3sccc32)cc1 | 1180
62 | CCCn1c(=O)c(C)nc2cc(-c3noc(/C=C/c4cccs4)n3)ccc21 | 792
63 | CCn1c(C(=O)NC2CCCCCC2)cc2sc(Cl)cc21 | 1290
64 | Fc1ccc(-c2nc(-c3ccc(-n4cccn4)nc3)no2)cc1F | 1070
65 | Cc1ccc(CNC(=O)c2cc(-c3ccncc3)cn2Cc2ccccc2C)o1 | 749
66 | CN(C)S(=O)(=O)c1ccc(Cl)c(-c2nnc(-c3ccccc3)o2)c1 | 983
67 | O=C(NC1(c2nc(-c3cccnc3)no2)CCCCC1)c1nccc2ccccc12 | 1100
